Laboratory results: patent US8530460B2, “Azetidine derivatives” (Boehringer Ingelheim International GmbH, priority 2011, dated 2013)

target: human ACC2 (Homo sapiens (Human), UniProt O00763); assay: ACC2 assay (spectrophotometric 384 well assay, NADH-linked coupled lactate dehydrogenase/pyruvate kinase); type: biochemical; details: hACC2 construct lacking 128 N-terminal amino acids; 25° C., 340 nm, 15 minutes
Method: Spectrophotometric 384 Well Assay
Malonyl CoA formation by acetyl CoA carboxylases is stoichometrically linked to the consumption of ATP. ACC2 activity is measured in a NADH-linked kinetic method measuring ADP generated during the ACC reaction using a coupled lactate dehydrogenase/pyruvate kinase reaction.
For biological testing, a human ACC2 construct which lacks the 128 amino acids at the N-terminus for increased solubility (nt 385-6966 in Genbank entry AJ575592) is cloned. The protein is then expressed in insect cells using a baculoviral expression system. Protein purification is performed by anion exchange.
All compounds are dissolved in dimethyl sulfoxide (DMSO) to a concentration of 10 mM.
Assay reactions are then carried out in 384-well plates, with hACC2 in an appropriate dilution and at final assay concentrations (f.c.) of 100 mM Tris (pH 7.5), 10 mM trisodium citrate, 25 mM KHCO3, 10 mM MgCl2, 0.5 mg/ml BSA, 3.75 mM reduced L-glutathione, 15 U/ml lactate dehydrogenase, 0.5 mM phosphoenolpyruvate, 15 U/ml pyruvate kinase, compounds at different concentrations at final DMSO concentrations of 1%.
The enzymatic reaction is then started by addition of a mixture of NADH, acetyl Coenzyme A (both 200 μM f.c.) and ATP (500 uM f.c.). The decrease of the optical density (slope S) is then determined at 25° C. at a wavelength of 340 nm over 15 minutes in a spectrophotometric reader.
Each assay microtiter plate contains wells with vehicle instead of compound as controls for the non-inhibited enzyme (100% CTL; ‘HIGH’) and wells without acetyl-CoA as controls for non-specific NADH degradation (0% CTL; ‘LOW’).
The slope S is used for calculation of % CTL=(S(compound)−S(‘LOW’))/(S(‘HIGH’)—S(‘LOW’))*100. Compounds will give values between 100% CTL (no inhibition) and 0% CTL (complete inhibition).
For IC50 value determination, the sample slope in the presence of the test compound after subtraction of the low controls (S(compound)−S(‘LOW’)) are used.
An IC50 value is derived from the compound slopes at different dosages after subtraction of the low controls (S(compound)−S(‘LOW’)) by non-linear regression curve fitting (equation y=(A+((B−A)/(1+((C/x)^D))))).

human ACC2, sequence (O00763 129-2458): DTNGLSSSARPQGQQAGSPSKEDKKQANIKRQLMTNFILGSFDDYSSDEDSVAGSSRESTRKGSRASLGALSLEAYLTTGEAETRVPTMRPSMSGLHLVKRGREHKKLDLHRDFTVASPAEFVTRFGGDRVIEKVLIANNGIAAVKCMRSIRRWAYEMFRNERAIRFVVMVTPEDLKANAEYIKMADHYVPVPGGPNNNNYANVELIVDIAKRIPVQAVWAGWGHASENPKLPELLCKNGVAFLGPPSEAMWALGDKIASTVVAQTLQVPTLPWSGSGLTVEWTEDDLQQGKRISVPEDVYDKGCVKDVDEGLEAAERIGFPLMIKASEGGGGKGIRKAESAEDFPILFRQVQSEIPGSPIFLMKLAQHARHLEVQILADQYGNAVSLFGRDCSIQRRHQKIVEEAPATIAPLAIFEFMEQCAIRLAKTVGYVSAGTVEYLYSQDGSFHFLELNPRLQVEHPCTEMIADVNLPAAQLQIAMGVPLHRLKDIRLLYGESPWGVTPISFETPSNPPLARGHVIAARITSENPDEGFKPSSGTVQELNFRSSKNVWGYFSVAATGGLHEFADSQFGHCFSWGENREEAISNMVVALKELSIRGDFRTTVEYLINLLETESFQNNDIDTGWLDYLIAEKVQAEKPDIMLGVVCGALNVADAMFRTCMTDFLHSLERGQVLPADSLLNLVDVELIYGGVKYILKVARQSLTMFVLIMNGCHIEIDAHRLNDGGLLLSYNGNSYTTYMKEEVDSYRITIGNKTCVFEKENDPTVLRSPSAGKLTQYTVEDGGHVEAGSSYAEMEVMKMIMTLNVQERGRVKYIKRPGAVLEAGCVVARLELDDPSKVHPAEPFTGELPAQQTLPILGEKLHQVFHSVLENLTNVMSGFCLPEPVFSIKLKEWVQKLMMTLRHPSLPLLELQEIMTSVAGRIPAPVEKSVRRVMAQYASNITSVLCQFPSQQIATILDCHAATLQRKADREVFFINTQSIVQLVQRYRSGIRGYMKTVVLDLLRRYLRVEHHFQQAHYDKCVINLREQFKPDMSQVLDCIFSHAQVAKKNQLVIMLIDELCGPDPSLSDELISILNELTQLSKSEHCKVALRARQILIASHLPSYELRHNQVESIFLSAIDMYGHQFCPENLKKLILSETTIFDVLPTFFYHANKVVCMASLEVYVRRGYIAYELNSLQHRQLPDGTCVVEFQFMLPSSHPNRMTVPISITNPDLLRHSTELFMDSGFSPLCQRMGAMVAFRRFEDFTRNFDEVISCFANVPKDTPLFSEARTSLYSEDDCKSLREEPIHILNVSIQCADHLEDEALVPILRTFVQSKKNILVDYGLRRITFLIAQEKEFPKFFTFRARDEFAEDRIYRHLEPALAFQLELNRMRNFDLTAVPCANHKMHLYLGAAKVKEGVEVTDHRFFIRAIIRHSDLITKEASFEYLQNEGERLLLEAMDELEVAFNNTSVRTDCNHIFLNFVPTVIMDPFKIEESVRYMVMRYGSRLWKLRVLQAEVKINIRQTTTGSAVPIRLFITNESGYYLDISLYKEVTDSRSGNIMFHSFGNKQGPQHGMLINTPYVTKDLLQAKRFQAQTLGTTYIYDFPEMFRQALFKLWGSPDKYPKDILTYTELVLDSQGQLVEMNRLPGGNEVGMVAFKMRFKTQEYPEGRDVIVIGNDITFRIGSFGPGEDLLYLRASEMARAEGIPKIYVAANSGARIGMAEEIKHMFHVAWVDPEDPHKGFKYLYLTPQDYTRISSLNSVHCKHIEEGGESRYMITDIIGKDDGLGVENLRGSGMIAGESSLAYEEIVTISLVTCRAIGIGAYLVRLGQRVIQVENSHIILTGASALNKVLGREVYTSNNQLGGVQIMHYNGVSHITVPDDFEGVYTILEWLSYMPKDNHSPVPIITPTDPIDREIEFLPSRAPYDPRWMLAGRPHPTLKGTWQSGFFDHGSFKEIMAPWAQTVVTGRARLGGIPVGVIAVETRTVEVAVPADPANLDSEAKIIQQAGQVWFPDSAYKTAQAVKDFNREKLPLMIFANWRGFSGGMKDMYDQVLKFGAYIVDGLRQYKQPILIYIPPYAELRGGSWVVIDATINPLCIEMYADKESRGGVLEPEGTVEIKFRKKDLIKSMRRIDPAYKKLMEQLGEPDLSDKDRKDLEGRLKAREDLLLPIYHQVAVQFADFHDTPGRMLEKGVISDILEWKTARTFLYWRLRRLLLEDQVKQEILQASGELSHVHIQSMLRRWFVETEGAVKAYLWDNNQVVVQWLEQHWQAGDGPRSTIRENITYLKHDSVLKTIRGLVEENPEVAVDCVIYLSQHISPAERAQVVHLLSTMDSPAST

| Compound | IC50 [nM] |
| --- | --- |
| CCOc1ccc(N2CC(Oc3ccc([C@H](C)NC(=O)c4sc(NC(C)=O)nc4C)cc3)C2)cc1 [Example 8.28] | 170 |
| CCOc1ccc(N2CC(Oc3ccc([C@H](C)NC(=O)c4cnco4)cc3)C2)cc1 [Example 8.33] | 190 |
| C[C@H](NC(=O)N(C)C)c1ccc(OC2CN(c3ncc(C4CC4)cn3)C2)cc1 [Example 10.1] | 340 |
| CC(=O)NC(C)c1ccc(OC2CN(c3ccc(C(C)(C)C)cc3)C2)cc1 (stereo not drawn) [Example 1.1, N-(1-(4-(1-(4-tert-Butylphenyl)azetidin-3-yloxy)phenyl)ethyl)acetamide] | 180 |
| COc1cc(OCC2CC2)ccc1N1CC(Oc2ccc([C@H](C)NC(C)=O)cc2)C1 [Example 1.36] | 2830 |
| CCOc1ccc(N2CC(Oc3ccc([C@H](C)NC(=O)c4cncs4)cc3)C2)cc1 [Example 8.41] | 510 |
| CCCOc1ccc(N2CC(Oc3ccc(C(C)NC(C)=O)cc3)C2)cn1 (stereo not drawn) [Example 1.9] | 560 |
| CC(=O)N[C@@H](C)c1ccc(OC2CN(c3ccnc(C(F)(F)F)c3)C2)cc1 [Example 4.29] | 1170 |
| CCNC(=O)N[C@@H](C)c1ccc(OC2CN(c3ncc(C4CC4)cn3)C2)cc1 [Example 10.2] | 1170 |
| CC(=O)N[C@@H](C)c1ccc(OC2CN(c3cc(Cl)ccn3)C2)cc1 [Example 4.7] | 3470 |
| CC(=O)N[C@@H](C)c1ccc(OC2CN(c3ncc(C)cn3)C2)cc1 [Example 5.2] | 2180 |
| CC(=O)N[C@@H](C)c1ccc(OC2CN(c3cncc(C(F)(F)F)c3)C2)cc1 [Example 4.40] | 1050 |
| CC(=O)N[C@@H](C)c1ccc(OC2CN(c3ncc(OCC4CC4(F)F)cn3)C2)cc1 (stereo partly drawn) [Example 4.42] | 530 |
| C=CCC(=O)N[C@@H](C)c1ccc(OC2CN(c3ccc(OCC)cc3)C2)cc1 [Example 8.13] | 450 |
| CC(=O)NC(C)c1ccc(OC2CN(c3ncc(Br)cn3)C2)cc1 (stereo not drawn) [Example 1.8] | 550 |
| CCOc1ccc(N2CC(Oc3ccc(CC(C)NC(C)=O)cc3)C2)cc1 (stereo not drawn) [Example 1.12] | 5340 |
| CCCOc1ccc(N2CC(Oc3ccc([C@H](C)NC(=O)C4CC4)cc3)C2)cc1 [Example 1.35] | 60 |
| CCOc1ccc(N2CC(Oc3ccc([C@H](C)NC(=O)Cc4cccnc4)cc3)C2)cc1 [Example 8.24] | 3940 |
| CC(=O)N[C@@H](C)c1ccc(OC2CN(c3cccc(OCC4CC4)c3)C2)cc1 [Example 7.1] | 1440 |
| C[C@H](NC(=O)N(C)C)c1ccc(OC2CN(c3ncc(Br)cn3)C2)cc1 [Example 3.7] | 470 |
| CC(=O)NC(C)Cc1ccc(OC2CN(c3ccc(C(C)(C)C)cc3)C2)cc1 (stereo not drawn) [Example 1.11] | 2210 |
| CCOc1ccc(N2CC(Oc3ccc([C@H](C)NC(=O)CF)cc3)C2)cc1 [Example 8.30] | 670 |
| CCOc1ccc(N2CC(Oc3ccc([C@H](C)NC(=O)c4cnc(NC(=O)CO)s4)cc3)C2)cc1 [Example 8.10] | 370 |
| CCCOc1ccc(N2CC(Oc3ccc([C@H](C)NC(=O)CF)cc3)C2)c(OC)c1 [Example 8.2] | 2370 |
| CC(=O)N[C@@H](C)c1ccc(OC2CN(c3noc4ccccc34)C2)cc1 [Example 4.25] | 750 |
| CCOc1ccc(N2CC(Oc3ccc([C@H](C)NC(=O)CC4CC4)cc3)C2)cc1 [Example 8.15] | 1740 |
| CCCOc1cc(N2CC(Oc3ccc([C@H](C)NC(C)=O)cc3)C2)ncn1 [Example 11.1, (S)—N-(1-(4-(1-(6-Propoxypyrimidin-4-yl)azetidin-3-yloxy)phenyl)ethyl)acetamide] | 6010 |
| CCOc1ccc(N2CC(Oc3ccc([C@H](C)NC(=O)C4(C#N)CC4)cc3)C2)cc1 [Example 8.12] | 1000 |
| CC(=O)N[C@@H](C)c1ccc(OC2CN(c3ccc4c(c3)OCCO4)C2)cc1 [Example 1.24] | 120 |

Continued by falling IC50, values first:

| IC50 [nM] | Compound |
| --- | --- |
| 4120 | CC(=O)N[C@@H](C)c1ccc(OC2CN(c3cc(N(C)CC4CC4)ncn3)C2)cc1 [Example 12.1] |
| 2910 | CCOc1cc(N2CC(Oc3ccc([C@H](C)NC(C)=O)cc3)C2)c(F)cn1 [Example 1.62] |
| 2790 | CCOc1ccc(N2CC(Oc3ccc([C@H](C)NC(=O)CO)cc3)C2)cc1 [Example 8.17] |
| 2340 | CCOc1ccc(N2CC(Oc3ccc([C@H](C)NC(=O)CCCNC(C)=O)cc3)C2)cc1 [Example 8.43] |
| 2270 | COc1cc(OC(C)C)ccc1N1CC(Oc2ccc([C@H](C)NC(C)=O)cc2)C1 [Example 1.37] |
| 2060 | CCOc1ccc(N2CC(Oc3ccc([C@H](C)NC(=O)c4ccc(C)o4)cc3)C2)cc1 [Example 8.37] |
| 1890 | CCOc1ccc(N2CC(Oc3ccc([C@H](C)NC(C)=O)cc3)C2)c(OC)c1 [Example 1.17] |
| 1470 | COc1ccc(-c2cnc(N3CC(Oc4ccc(C(C)NC(C)=O)cc4)C3)nc2)cc1 (stereo not drawn) [Example 3.4] |
| 1180 | CC(=O)N[C@@H](C)c1ccc(OC2CN(c3ncc4nc(-c5ccccc5)oc4n3)C2)cc1 [Example 4.23] |
| 1180 | COc1ccc(N2CC(Oc3ccc([C@H](C)NC(C)=O)cc3)C2)c(C#N)c1 [Example 1.22] |
| 1110 | CC(=O)N[C@@H](C)c1ccc(OC2CN(c3ccc(Br)c(C#N)n3)C2)cc1 [Example 4.35] |
| 810 | CCOc1ccc(N2CC(Oc3ccc([C@H](C)NC(=O)c4ccns4)cc3)C2)cc1 [Example 8.34] |
| 670 | CCOc1cccc(N2CC(Oc3ccc([C@H](C)NC(C)=O)cc3)C2)c1 [Example 1.30] |
| 580 | CCCOc1ccc(N2CC(Oc3ccc([C@H](C)NC(C)=O)cc3)C2)c(C#N)c1 [Example 1.25] |
| 530 | CCOc1ccc(N2CC(Oc3ccc([C@H](C)NC(=O)c4ccnc(NC(C)=O)c4)cc3)C2)cc1 [Example 8.25] |
| 480 | CC(=O)N[C@@H](C)c1ccc(OC2CN(c3nc4ccccc4o3)C2)cc1 [Example 4.3] |
| 440 | CCNC(=O)N[C@@H](C)c1ccc(OC2CN(c3ccc(OCC)cc3)C2)cc1 [Example 10.4] |
| 430 | CCOc1ccc(N2CC(Oc3ccc([C@H](C)NC(=O)CC#N)cc3)C2)cc1 [Example 8.8] |
| 410 | CC(=O)N[C@@H](C)c1ccc(OC2CN(c3cccc(C(F)(F)F)n3)C2)cc1 [Example 4.21] |

| IC50 [nM] | Compound |
| --- | --- |
| 390 | CC(=O)N[C@@H](C)c1ccc(OC2CN(c3ncc(Cl)cn3)C2)cc1 [Example 4.24] |
| 350 | C[C@H](NC(=O)C1CC1)c1ccc(OC2CN(c3ccc(OC4CC4)cc3)C2)cc1 [Example 1.39] |
| 350 | CCOc1ccc(N2CC(Oc3ccc([C@H](C)NC(=O)C4CC=CC4)cc3)C2)cc1 [Example 8.40] |
| 290 | CC(=O)N[C@@H](C)c1ccc(OC2CN(c3ccc(Br)cn3)C2)cc1 [Example 4.17] |
| 290 | CC(=O)N[C@@H](C)c1ccc(OC2CN(c3ccc(F)c(C(F)(F)F)n3)C2)cc1 [Example 4.37] |
| 240 | CC(=O)NC(C)c1ccc(OC2CN(c3ccc4c(c3)OCCO4)C2)cc1 (stereo not drawn) [Example 1.2] |
| 200 | CC(=O)N[C@@H](C)c1ccc(OC2CN(c3ccc(C(F)(F)F)cn3)C2)cc1 [Example 4.19] |
| 190 | CC(=O)N[C@@H](C)c1ccc(OC2CN(c3ccc4c(c3)OCCCC4(C)C)C2)cc1 [Example 1.29] |
| 190 | C[C@H](NC(=O)N(C)C)c1ccc(OC2CN(c3ccc(OC4CC4)cc3)C2)cc1 [Example 1.32] |
| 190 | CCCOc1ccc(N2CC(Oc3ccc([C@H](C)NC(=O)N(C)C)cc3)C2)cc1 [Example 1.31] |
| 170 | CC(=O)N[C@@H](C)c1ccc(OC2CN(c3ccc(OC4CCC4)cc3C#N)C2)cc1 [Example 1.46] |
| 170 | CCCOc1ccc(N2CC(Oc3ccc([C@H](C)NC(C)=O)cc3)C2)c(C)c1 [Example 2.5] |
| 110 | CC(=O)N[C@@H](C)c1ccc(OC2CN(c3ccc(OC4CC4)cc3F)C2)cc1 [Example 1.55] |
| 100 | CC(=O)NC(C)c1ccc(OC2CN(c3ccc(OCC4CC4)cc3)C2)c(F)c1 (stereo not drawn) [Example 13, N-(1-(4-(1-(4-(cyclopropylmethoxy)phenyl)azetidin-3-yloxy)-3-fluorophenyl)ethyl)-acetamide] |
| 90 | CC(=O)N[C@@H](C)c1ccc(OC2CN(c3ncc(-c4ccc(F)cc4)cn3)C2)cc1 [Example 6.1] |
| 70 | CCCOc1ccc(N2CC(Oc3ccc([C@H](C)NC(C)=O)cc3)C2)cc1 [Example 1.13] |
| 60 | CC(=O)N[C@@H](C)c1ccc(OC2CN(c3ccc(OCC4CC4)cc3F)C2)cc1 [Example 2.2] |
| 40 | CC(=O)N[C@@H](C)c1ccc(OC2CN(c3ccc(OCC4CC4(F)F)cc3F)C2)cc1 (stereo partly drawn) [Example 1.54] |
